Read-outs that look alike come from different tables or passages of the source.

For test [1], the target named is wild type MLL1 four-member complex (MLL1-4C) (Homo sapiens, UniProt Q03164). Description: MLL1 LC-MS Assay. In kind it is biochemical. In outline: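 Compound pre-incubated 20 min with MLL1-4C and SAM, then H3[1-21]-biotin (H3K4me0) substrate added; final 30 nM enzyme, 2.5 μM SAM, 10 μM peptide in Tris pH 8.0 with MgCl2, DTT, Tween 20, BSA. After 120 min at rt, TFA-quenched SAH quantified by LC-MS/MS with d4-SAH; IC50 from dose-response fit.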

In test [2] the test system is H3K4me3 in MV4-11 cells. The experiment in a line: MV4-11 H3K4me3 Cellular ELISA Assay. The note with it: Homo sapiens, MV4-11, 48 h. The test is classed as cell-based. In outline: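 MV4-11 cells were treated for 48 h with 12-point 1:3 compound dilutions (from 10 mM stock), then histones were acid-extracted with 0.5M HCl and neutralized. H3K4me3 and total H3 were measured by HRP chemiluminescent ELISA, and inhibition versus DMSO after H3 normalization was curve-fitted for IC50.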

Test [3] has as its system MV4-11 cells. The experiment in a line: MV4-11 6-Day Cell Growth CTG (CellTiter-Glo) Assay. The test is classed as cell-based. The note with it: Homo sapiens, MV4-11, 144 h, MV4-11 cell growth CellTiter-Glo, 6 days. Summed up: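 MV4-11 AML cells (RPMI 1640, 10% FBS) seeded at 300 cells/well and exposed for 6 days at 37 °C to a 12-point, 1:3 compound series starting at 50 μM final. Viable cells read by CellTiter-Glo luminescence; percent inhibition versus DMSO-only wells fitted to dose-response curves for IC50.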
A general note: In ATP-based viability assays light output follows the ATP content of the culture.

Test [4] deals with wild type MLL1 five-member complex (MLL1-5C) (Homo sapiens, UniProt Q03164). Description: MLL1 Flashplate Assay. In kind it is biochemical. The following applies: read-out: MLL1 flash plate. The method, then:
MLL1 Flashplate Assay To assess the compound potency in MLL1 Flashplate assay, compounds were serially diluted 3-fold in DMSO to obtain a total of twelve concentrations. Then the test compounds at each concentration (250 nL of each) were transferred by Mosquito into Corning #3675 384-well plate. Solutions (15 μL) of 4.2 nM wild type MLL1 five-member complex (MLL1-5C) in the assay buffer (20 mM Tris-HCl, pH 8.0, 0.01% Tween 20, 1 mM DTT, 0.01% BSA) were added to the wells. A 10 μL solution of 2.5 μM of the peptide substrate H3K4me0 (histone H3[1-21]-Biotin) and 1.25 μM ^3H-SAM in the reaction buffer was then added to initiate each reaction. The final components in the reaction solution include 2.5 nM MLL1-5C, 0.5 μM ^3H-SAM, and 1 μM H3K4me0 with varying concentration of the compounds. A positive control consisted of 2.5 nM MLL1-5C, 0.5 μM ^3H-SAM, and 1 μM substrate in the absence of the test compound, and a negative control consisted of 0.5 μM ^3H-SAM, and 1 μM substrate only. Each reaction was incubated at rt for 90 min, then stopped by addition of 5 μL per of quench solution (0.5 mM SAM in assay buffer). 25 μL of each reaction solution was transferred to FlashPlate streptavidin 384-well microplate (PerkinElmer). After at least 1 h incubation at rt, the wells were washed three times with 0.1% Tween-20 in dH2O using the BioTek plate washer. The plates were then read in MicroBeta (PerkinElmer). The radioactive readouts were then normalized based on the values coming from the positive and negative controls to give percent enzyme activities. The data were then fit to a dose response equation using the program Helios to get the IC50 values of the test compounds.

On to `CCc1cc(-c2ccccn2)cc(N2CC[C@](N)(C(=O)NC3CC3)C2)c1Cn1cnc2c(N)ncnc21` [Example 99, (R)-3-amino-1-(2-((6-amino-9H-purin-9-yl)methyl)-3-ethyl-5-(pyridin-2-yl)phenyl)-N-cyclopropylpyrrolidine-3-carboxamide], for which the IC50 is below 50 nM in test [1] (read-out: LCMS), below 1900 nM in test [2], below 2000 nM in test [3] and below 60 nM in test [4].

For the molecule `CCc1c(C#N)c(Cl)cc(N2CC[C@](N)(C(=O)NC3CC3)C2)c1Cn1cnc2c(N)ncnc21` [Example 101, (R)-3-amino-1-(2-((6-amino-9H-purin-9-yl)methyl)-5-chloro-4-cyano-3-ethylphenyl)-N-cyclopropylpyrrolidine-3-carboxamide], the IC50 in test [1] (read-out: LCMS) is below 50 nM; in test [2], below 1900 nM; in test [3], 2000 to 3000 nM; in test [4], below 60 nM.

`Nc1ncnc2c1ncn2Cc1c(N2CC[C@](N)(C(=O)NC3CC3)C2)cc(Cl)c(F)c1CN1CCOCC1` [Example 102, (R)-3-amino-1-(2-((6-amino-9H-purin-9-yl)methyl)-5-chloro-4-fluoro-3-(morpholinomethyl)phenyl)-N-cyclopropylpyrrolidine-3-carboxamide]: the IC50 in test [1] (read-out: LCMS) was below 50 nM; in test [2], below 1900 nM; in test [3], below 2000 nM; in test [4], below 60 nM.

Turning to `Nc1ncnc2c1ncn2Cc1c(N2CC[C@@](N)(CO)C2)ccc2ccccc12` [Example 106], the IC50 was below 50 nM in test [1] (read-out: LCMS), below 1900 nM in test [2], below 2000 nM in test [3] and below 60 nM in test [4].

In the case of `Nc1ncnc2c1ncn2Cc1c(Br)c(Cl)c2c(c1N1CC[C@](N)(C(=O)NC3CC3)C1)OCC2` [Example 110], the IC50 in test [1] (read-out: LCMS) is below 50 nM; in test [2] it was below 1900 nM; in test [3], below 2000 nM; in test [4] it was below 60 nM.

As for `Nc1ncnc2c1ncn2Cc1c(N2CC[C@](N)(C(=O)NC3CC3)C2)ccc2ccoc12` [Example 112], the IC50 is 50 to 100 nM in test [1] (read-out: LCMS), below 1900 nM in test [2], below 2000 nM in test [3] and below 60 nM in test [4].

As for `Nc1ncnc2c1ncn2Cc1c(N2CC[C@](N)(C(=O)NC3CC3)C2)ccc(F)c1C(F)(F)F` [Example 116, (R)-3-amino-1-(2-((6-amino-9H-purin-9-yl)methyl)-4-fluoro-3-(trifluoromethyl)phenyl)-N-cyclopropylpyrrolidine-3-carboxamide], the IC50 was below 50 nM in test [1] (read-out: LCMS), below 1900 nM in test [2], below 2000 nM in test [3] and below 60 nM in test [4].

On to `CS[C@H]1C[C@H](NC(=O)[C@@]2(N)CCN(c3ccc(F)c(C(F)(F)F)c3Cn3cnc4c(N)ncnc43)C2)C1` [Example 117], for which the IC50 was below 50 nM in test [1] (read-out: LCMS), below 1900 nM in test [2], below 2000 nM in test [3] and below 60 nM in test [4].

Consider `Nc1ncnc2c1ncn2Cc1c(N2CC[C@](N)(C(=O)NCc3cccnn3)C2)ccc(F)c1C(F)(F)F` [Example 118], for which the IC50 in test [1] (read-out: LCMS) is 50 to 100 nM; in test [2], below 1900 nM; in test [3], below 2000 nM; in test [4], below 60 nM.

As to `N#CCC1CCN(C(=O)[C@@]2(N)CCN(c3ccc(F)c(C(F)(F)F)c3Cn3cnc4c(N)ncnc43)C2)CC1` [Example 119], the IC50 in test [1] (read-out: LCMS) was 50 to 100 nM; in test [2], below 1900 nM; in test [3], below 2000 nM; in test [4], below 60 nM.

As to `Nc1ncnc2c1ncn2Cc1c(N2CC[C@](N)(C(=O)Nc3cc(C4CC4)n[nH]3)C2)ccc(F)c1C(F)(F)F` [Example 123], the IC50 in test [1] (read-out: LCMS) is above 100 nM; in test [2], below 1900 nM; in test [3], below 2000 nM; in test [4] it was below 60 nM.

Regarding `CC(C)(C#N)CNC(=O)[C@@]1(N)CCN(c2ccc(F)c(C(F)(F)F)c2Cn2cnc3c(N)ncnc32)C1` [Example 125], the IC50 in test [1] (read-out: LCMS) is below 50 nM; in test [2], below 1900 nM; in test [3] it was below 2000 nM; in test [4], below 60 nM.

As to `Nc1ncnc2c1ncn2Cc1c(N2CC[C@](N)(C(=O)N[C@@H]3C[C@H]3CO)C2)ccc(F)c1C(F)(F)F` [Example 127], the IC50 is below 50 nM in test [1] (read-out: LCMS), below 1900 nM in test [2], below 2000 nM in test [3] and below 60 nM in test [4].

Turning to `Nc1ncnc2c1ncn2Cc1c(N2CC[C@](N)(C(=O)N3CCn4nncc4C3)C2)ccc(F)c1C(F)(F)F` [Example 128], the IC50 is above 100 nM in test [1] (read-out: LCMS), below 1900 nM in test [2], above 3000 nM in test [3] and above 100 nM in test [4].

For `C[C@H]1CN(C(=O)[C@@]2(N)CCN(c3ccc(F)c(C(F)(F)F)c3Cn3cnc4c(N)ncnc43)C2)CCO1` [Example 131], the IC50 in test [1] (read-out: LCMS) is 50 to 100 nM; in test [2], below 1900 nM; in test [3], below 2000 nM; in test [4], below 60 nM.

With `N#CC1CN(C(=O)[C@@]2(N)CCN(c3ccc(F)c(C(F)(F)F)c3Cn3cnc4c(N)ncnc43)C2)C1` [Example 132], the IC50 was 50 to 100 nM in test [1] (read-out: LCMS), below 1900 nM in test [2], below 2000 nM in test [3] and below 60 nM in test [4].

For the molecule `Nc1nccc(CNC(=O)[C@@]2(N)CCN(c3ccc(F)c(C(F)(F)F)c3Cn3cnc4c(N)ncnc43)C2)n1` [Example 133], the IC50 in test [1] (read-out: LCMS) is 50 to 100 nM; in test [2], below 1900 nM; in test [3], below 2000 nM; in test [4], 60 to 100 nM.

For the molecule `Nc1ncnc2c1ncn2Cc1c(N2CC[C@](N)(C(=O)N3CCc4nocc4C3)C2)ccc(F)c1C(F)(F)F` [Example 134], the IC50 in test [1] (read-out: LCMS) is above 100 nM; in test [2], below 1900 nM; in test [3] it was below 2000 nM; in test [4], below 60 nM.

`C[C@@H]1CN(C(=O)[C@@]2(N)CCN(c3ccc(F)c(C(F)(F)F)c3Cn3cnc4c(N)ncnc43)C2)CCO1` [Example 135]: the IC50 in test [1] (read-out: LCMS) was 50 to 100 nM; in test [2], below 1900 nM; in test [3], below 2000 nM; in test [4] it was below 60 nM.

`N#CCN1CCN(C(=O)[C@@]2(N)CCN(c3ccc(F)c(C(F)(F)F)c3Cn3cnc4c(N)ncnc43)C2)CC1` [Example 136]: the IC50 is 50 to 100 nM in test [1] (read-out: LCMS), below 1900 nM in test [2], below 2000 nM in test [3] and below 60 nM in test [4].

As to `Nc1ncnc2c1ncn2Cc1c(N2CC[C@](N)(C(=O)N3CCC[C@@H](O)C3)C2)ccc(F)c1C(F)(F)F` [Example 138], the IC50 in test [1] (read-out: LCMS) is 50 to 100 nM; in test [2] it was below 1900 nM; in test [3], below 2000 nM; in test [4], below 60 nM.

As to `CCn1ncnc1CNC(=O)[C@@]1(N)CCN(c2ccc(F)c(C(F)(F)F)c2Cn2cnc3c(N)ncnc32)C1` [Example 140], the IC50 in test [1] (read-out: LCMS) was above 100 nM; in test [2], below 1900 nM; in test [3], below 2000 nM; in test [4], 60 to 100 nM.

Take `N#CC1CCN(C(=O)[C@@]2(N)CCN(c3ccc(F)c(C(F)(F)F)c3Cn3cnc4c(N)ncnc43)C2)C1` (some centres unmarked) [Example 141]: the IC50 in test [1] (read-out: MLL1 LCMS) is below 50 nM; in test [2], below 1900 nM; in test [3] it was below 2000 nM; in test [4], below 60 nM.

On to `Nc1ncnc2c1ncn2Cc1c(Br)ccc(Cl)c1N1CC[C@@](N)(C(=O)O)C1` [Example 142], for which the IC50 in test [1] (read-out: MLL1 LCMS) is below 50 nM; in test [2], below 1900 nM; in test [3] it was above 3000 nM; in test [4] it was below 60 nM.

As to `Nc1ncnc2c1ncn2Cc1c(Br)c(Cl)cc(Cl)c1N1CC[C@](N)(C(=O)NC2CC2)C1` [Example 143], the IC50 in test [1] (read-out: MLL1 LCMS) was below 50 nM; in test [2], below 1900 nM; in test [3], below 2000 nM; in test [4] it was below 60 nM.

As to `Nc1ncnc2c1ncn2Cc1c(N2CC[C@](N)(C(=O)NC3CC3)C2)ccc(Cl)c1Cl` [Example 144], the IC50 was below 50 nM in test [1] (read-out: MLL1 LCMS), below 1900 nM in test [2], below 2000 nM in test [3] and below 60 nM in test [4].

The values are drawn from patent US20220380371A1, “MLL1 INHIBITORS AND ANTI-CANCER AGENTS” (NOVARTIS AG, priority 2019, published 2022).
